# From patent US11058619B2, “Carboxylated polyphenol derivatives and their cosmetic use” (L'ORÉAL, priority 2016, dated 2021)
# Several values for one entry are separate records, joined by “and”; a condition that tells them apart may be missing. Equal entries are not always repeated.
# Experiments:
# [1] = system: normal human melanocytes; experiment: Depigmenting activity: melanin produced by normal human melanocytes in vitro; assay type: cell-based
# Experimental: The measurement of the depigmenting activity (reduction in the production of melanin) of compounds of formula (I) was performed by assaying the melanin produced by normal human melanocytes in vitro as follows.
# First of all, normal human melanocytes are cultured and dispensed into 384 wells. After 24 hours, the culture medium was replaced with a medium containing compounds of formula (I) to be evaluated. The cells were incubated for 72 hours before measurement of the final optical density, which measures the amount of melanin produced by the melanocytes. A […] is performed using a wide concentration range of the compounds evaluated. Thus, by making the concentrations and the measurements of melanin correspond, it is possible to determine an IC50 in μM: concentration at which 50% decrease in melanin synthesis is achieved.
# [2] = system: HAS3 marker; experiment: Gene marker expression (HAS3) in human epidermal keratinocytes by RT-qPCR; assay type: cell-based
# Experimental: Human epidermal keratinocytes were seeded in 48 well-culture plate and cultured for 48 hours at 37° C. and 5% of CO2 in culture medium with renewal of culture medium after the first 24 hours. At the end of incubation, culture medium was replaced by assay medium containing or not (control) raw material and cells were incubated for additional 24 hours. All experimental conditions were performed in n=3. At the end of treatment, cells were washed twice in PBS (w/o CaCl2, w/o MgCl2) and RNA extraction was performed using MagMAX™-96 Total RNA Isolation Kit (Ambion cat n° AM8130) according to manufacturer recommendation. RNA quantification and quality control were performed using Labchip GX (Perkin Elmer). Relative expression of selected markers was measured by two steps RT-qPCR. In a first step, a reverse transcription was performed using the Quantitect® Reverse transcription kit (QIAGEN) and according to manufacturer recommendation. Then, PCR experiments were performed using a LightCycler® 480 Real-Time PCR System measuring SYBR®Green incorporation (Roche).
smiles,measurement,setting,value
O=C(O)c1c(O)cc(/C=C/c2ccc(O)cc2)cc1O [Compound W],IC50,"[1]; Melanocyte, normal human melanocytes, 72 hours incubation, optical density, read-out: IC50, inhibiting effect on the production of melanin",25 µM
same,Mean percentage Depigmentation,[1]; concentration 0.000003125 (unit not given),15.6%
same,Mean percentage Depigmentation,[1]; concentration 0.00000625 (unit not given),22.8%
same,Mean percentage Depigmentation,[1]; concentration 0.0000125 (unit not given),32.8%
same,Mean percentage Depigmentation,[1]; concentration 0.000025 (unit not given),43.0%
same,Mean percentage Depigmentation,[1]; concentration 0.00005 (unit not given),76.7%
same,Mean percentage Depigmentation,[1]; concentration 0.0001 (unit not given),99.7%
same,Mean percentage Depigmentation,[1]; concentration 0.0002 (unit not given),125.6%
same,Mean percentage Depigmentation,[1]; concentration 1.5625*10^−6 (unit not given),9.7%
same,Mean percentage Depigmentation,[1]; concentration 3.90625*10^−7 (unit not given),−0.9%
same,Mean percentage Depigmentation,[1]; concentration 7.8125*10^−7 (unit not given),5.5%
same,depigmenting effect,[1]; normal human melanocytes,showed a depigmenting effect
same,cytotoxicity,"[1]; normal human melanocytes, in the concentration range tested",without cytotoxicity
same,Relative expression (UA) of HAS3,"[2]; 30 μM, 24 hours, human epidermal keratinocytes, individual replicates (n=3)",3.44E−03 UA and 3.32E−03 UA and 3.61E−03 UA
same,Fold change Mean of HAS3 expression vs control,"[2]; 30 μM, 24 hours, mean of n=3",2.45
same,Fold change (Nb) of HAS3 expression,"[2]; 30 μM, 24 hours, vs control, individual replicates (n=3)",2.432 Nb and 2.35 Nb and 2.553 Nb
same,cytotoxicity,"[2]; human epidermal keratinocytes, at 30 μM",without cytotoxicity
